Data from patent publication US11737991B2, “Eutectic formulations of cyclobenzaprine hydrochloride and amitriptyline hydrochloride” (TONIX PHARMA HOLDINGS LIMITED, priority 2013, dated 2023).
“Also recorded” adds a separate entry of the source. Where a name gives a salt, the structure may show the parent alone. One block for each compound: values may come before it.

Key:
Format in all cases: physicochemical
[1] = DSC, FT-IR/ATR and XRPD compatibility of excipients with Cyclobenzaprine HCl, mixed (A) and milled (B) 1:1 mixtures (Example 2); settings: for Type of interaction between excipient and API (summary): 1:1 mixtures, mixed and milled
Protocol: As described above, thermal analytical techniques were further used to assess the compatibility of a drug product (tablet) containing Cyclobenzaprine HCl (API). The compatibility assessment was carried out between the API and additional excipients in a 1:1 ratio. The 1:1 APT-excipient mixtures were formed in two different ways: first, by mixing only, and second, by strong milling in an agate mortar. The thermal behavior recorded in the two different mixtures were compared with those of the single components. On the basis of thermal events recorded for each component and for the mixtures, the analyses were carried out by investigating the meanings of the peaks recorded by differential scanning calorimetry (DSC) in mixtures between the API and the excipients. Furthermore, in order to define the nature of the interaction, the Fourier Transform Infra Red Spectroscopy with Total Attenuated Reflectance (FT-IR/ATR) and X-ray powder diffraction (XRPD) of some samples (API, excipient, and mixed and milled mixtures) was carried out and compared.
Aliquots of API and each excipient were weighed in a ratio of 1:1 and ground in an agate mortar. Then, the homogeneous mixtures were analyzed. These sample mixtures were labeled “B”, while the mechanical-only mixtures were labeled “A.”
The DSC heating curves were obtained by TA 821 DSC Mettler instrument under the following conditions:
(§1) Ambient: Nitrogen 30 mL/min
(§2) Sample holder: normal open aluminum pan
(§3) Temperature range: from 25° C. to 250° C.
(§4) Instrument calibration: Indium sample purity 99.999%
The FT-IR spectra were collected with a Perkin Elmer spectrum Two instrument with air as background and 4 cm-1 resolution.
X-ray powder diffraction (XRPD) tests were performed with the ULTIMA IV instrument (Rigaku), laying the sample on a static sample holder. The X-ray focusing slit has a variable width, interlocked with the q value. The X-ray tube has a Copper target, with a current intensity of 40 mA and a voltage of 40 kV. Radiation was generated by the Cockcroft-Walton method, and was constituted by Kα1 (1.540562 Å) and Kα2 (1.544398 Å). The analytical conditions were:
Fixed Time; sampling width 0.02 deg, scanning rate 1.3 s/step, 2 q range 3.35 deg and sample holder; amorphous glass equiangular 9200/2G, 0.2 mm deep. The sample was pressed with a glass plate.

[2] = DSC compatibility of excipients with Cyclobenzaprine HCl (Example 1); settings: for Excipient reactions with API, Mixture 1:1: 1:1 API:excipient, ground in agate mortar
Protocol: Thermal analytical techniques were used to assess the compatibility of a drug product (tablet) containing Cyclobenzaprine HCl (API). The compatibility assessment was carried out between the API and a number of possible excipients in a 1:1 ratio. Based on the thermal events recorded for each component and for the mixtures, the analyses were carried out by investigating the peaks recorded by differential scanning calorimetry (DSC) in mixture between API and the excipients. Differences in thermal profiles between the single compound and the related mixture obtained after milling the products in an agate mortar were evaluated. Stability and compatibility also were also assessed on the final drug product after stress conditions at 40° C. and 50° C. for one month.
A “formulation ratio” mixture was made with the following composition: 2.40 mg Cyclobenzaprine HCl, 31.55 mg Mannitol and Maize starch, 2.00 Crospovidone, 0.50 mg colloidal silica, 0.050 mg Sodium Stearyl Fumarate, and 1.05 Potassium hydrogen phosphate.
Aliquots of API and each excipient were weighed in a ratio of 1:1 (unless specified otherwise) and ground in an agate mortar. The homogeneous mixtures then were analyzed.
The DSC heating curves were obtained with a TA 821 DSC Mettler instrument under the following conditions:
as §1, §2, §3, §4

[3] = XRPD of binary Cyclobenzaprine HCl-mannitol mixtures (Example 3); settings: binary mixtures 30-90% API, no thermal treatment
Protocol: In order to confirm the eutectic formation and to characterize its physical properties, several binary mixtures at different ratios of API-excipient were prepared and analyzed by DSC and by X-ray powder diffraction (XRPD). The mixtures were obtained by gently milling in agate mortar of micronized Cyclobenzaprine HCl and mannitol, in order to obtain homogeneous distribution of the particles. For each DSC heating curve, the onset temperature and the enthalpy were evaluated both for the eutectic contribute and for the excess of component. The recorded values were plotted and a phase diagram between the two components was obtained with a characteristic profile of phase diagrams of eutectic mixtures. Mixtures also were investigated by XRPD and compared with the patterns of pure components. […] Aliquots of Cyclobenzaprine HCl API and Mannitol were weighed in the ratios described below and ground in an agate mortar, and the homogeneous mixtures subsequently analyzed. X-ray powder diffraction (XRPD) tests were performed with a ULTIMA IV (Rigaku) instrument, laying the sample on a static sample holder. […] The radiation generated by the Cockcroft-Walton method is constituted by Kα1 (1.540562 Å) and Kα2 (1.544398 Å). The analytical conditions were as follows: Fixed Time: Sampling width, 0.02 deg; Scanning rate, 1.0 s/step […] Sample holder: amorphous glass—equiangular 9200/2G, 0.2 mm deep. […]

[4] = DSC compatibility of excipients with Amitriptyline HCl (Example 4); settings: Amitriptyline HCl:excipient 1:1, milled in agate mortar
Protocol: Thermal analytical techniques were used to assess the compatibility of the drug product Amitriptyline HCl. The compatibility assessment was carried out between the API and the excipients in a 1:1 ratio. On the basis of thermal events recorded for each component and for the mixtures, the analyses were carried out by investigating the peaks recorded by DSC in mixtures between API and the excipients. Differences in thermal profiles between the single compound and the related mixtures were obtained after milling the products in an agate mortar.

[5] = Dissolution test, USP paddle, pyrophosphate buffer pH 4.5; settings: pH 4.5, free base still present and does not go into solution
Protocol: To test the dissolution properties of the 6 mannitol eutectic, dissolution tests were carried out with a Copley DIS 6000 instrument under the following conditions: Apparatus: USP Paddle RPM: 50 Medium: Pyrophosphate buffer 0.5% pH=4.5±0.05 Additive: Methocel 0.3% Vessel volume: 300 mL Temperature: 37±0.5° C. Sampling time: 1, 2, 5, 10, 20, 30, and 60 min, then each hour until 6 hours. The sampling solutions were diluted 1 to 50 mL and then 1 to 50 mL with medium and submitted to UV analysis with UV ([…]) under the following conditions: λ max: 224 nm Cuvette: […] Blank: medium

[6] = listed as Sodium Stearyl fumarate, fumarate
[7] = listed as Potassium phosphate bibasic

Type of interaction between excipient and API (summary) [1]: physical interaction
Compound: OC[C@@H](O)[C@@H](O)[C@H](O)[C@@H](O)CO [Sorbitol]

Excipient reactions with API, Mixture 1:1 ([2]; fumarate): Physical interaction | Excipient reactions with API, Mixture 1:1 [2, 6]: small physical interaction | Excipient reactions with API, Mixture in formulation ratio ([2]; fumarate): No interaction | Excipient reactions with API, Mixture in formulation ratio [2, 6]: this incompatibility disappears
Compound: CCCCCCCCCCCCCCCCCCOC(=O)/C=C/C(=O)[O-].[Na+] [Sodium stearyl fumarate]

Type of interaction between excipient and API (summary) [1]: formation of a eutectic
Compound: OC[C@@H](O)[C@@H](O)[C@H](O)[C@H](O)CO [Mannitol]
Interaction between API and mannitol by XRPD [3]: no adduct formation, only a physical eutectic formation; also recorded: no adduct interaction occurred

Compound: O=P([O-])([O-])O.[K+].[K+] [Potassium phosphate dibasic, dipotassium hydrogen phosphate]
Excipient reactions with API, Mixture 1:1 [2]: Acid - base interaction | Excipient reactions with API, Mixture 1:1 [2, 7]: chemical interaction (acid-base); also recorded: chemical (acid-base) interaction | Excipient reactions with API, Mixture in formulation ratio [2]: Low chemical | Excipient reactions with API, Mixture in formulation ratio ([2]; listed as K2HPO4): small interaction | Excipient reactions with API, Mixture in formulation ratio [2, 7]: chemical (acid-base) interaction

Compound: Sodium Phosphate dodecahydrate
Interactions between API and excipients, Mixture in formulation (1:1 ratio) [4]: physical interaction

Compound: O=C([O-])CC(O)(CC(=O)[O-])C(=O)[O-].[Na+].[Na+].[Na+] [Tri Sodium Citrate anhydrous, Trisodium citrate anhydrous]
Nature of interaction by FT-IR/ATR ([1]; 1:1 mixture, room temperature, no thermal treatment): no chemical acid-base reaction had occurred | Type of interaction between excipient and API (summary) [1]: only physical

Cyclobenzaprine dissolution [5]: < 100%
Compound: CN(C)CCC=C1c2ccccc2C=Cc2ccccc21 [Cyclobenzaprine HCl, 3-(5H-dibenzo[a,d]cyclohepten-5-ylidene)-N,N-dimethyl-1-propanamine]
